Assay results reported in paper PMC4648982 (Chemistry Central Journal, 2015).
Where a name gives a salt, the structure may show the parent alone.

Biological target: jack bean urease (Canavalia ensiformis, UniProt P07374)
Experiment: biochemical
Conditions: for urease inhibitory activity in words: in vitro assay, authors' verbal grading
Procedure: Reaction mixture comprising of 25μL of enzyme (jack bean urease) (1 unit/well) solution and 55 μL of phosphate buffers (4 mM) containing 100 mM urea were incubated with 5 μL of test compounds dissolved in methanol (0.5 mM concentration) at 30 °C for 15 min in 96-well plates. Urease activity was determined by measuring ammonia production using the indophenol method as described by Weather burn. Briefly, 45 μl each phenol reagent (1 % w/v phenol and 0.005 % w/v sodium nitroprussside) and 70 μL of alkali reagent(0.5 % w/v NaOH and 0.1 % active chloride NaOCl) were added to each well. The increasing absorbance at 630 nm was measured afther 50 min, using a microplate reader (Molecular Device, USA). All reactions were performed in triplicate in a final volume of 200 μL. The results (change in absorbance per min) were processed by using softMax Pro software (molecular Device, USA). The entire assays were performed at pH 6.8. Percentage inhibitions were calculated from the formula 100 − (ODtestwell/ODcontrol) × 100. Thiourea was used as the standard inhibitor of urease.

jack bean urease, sequence (P07374 whole entry, looked up): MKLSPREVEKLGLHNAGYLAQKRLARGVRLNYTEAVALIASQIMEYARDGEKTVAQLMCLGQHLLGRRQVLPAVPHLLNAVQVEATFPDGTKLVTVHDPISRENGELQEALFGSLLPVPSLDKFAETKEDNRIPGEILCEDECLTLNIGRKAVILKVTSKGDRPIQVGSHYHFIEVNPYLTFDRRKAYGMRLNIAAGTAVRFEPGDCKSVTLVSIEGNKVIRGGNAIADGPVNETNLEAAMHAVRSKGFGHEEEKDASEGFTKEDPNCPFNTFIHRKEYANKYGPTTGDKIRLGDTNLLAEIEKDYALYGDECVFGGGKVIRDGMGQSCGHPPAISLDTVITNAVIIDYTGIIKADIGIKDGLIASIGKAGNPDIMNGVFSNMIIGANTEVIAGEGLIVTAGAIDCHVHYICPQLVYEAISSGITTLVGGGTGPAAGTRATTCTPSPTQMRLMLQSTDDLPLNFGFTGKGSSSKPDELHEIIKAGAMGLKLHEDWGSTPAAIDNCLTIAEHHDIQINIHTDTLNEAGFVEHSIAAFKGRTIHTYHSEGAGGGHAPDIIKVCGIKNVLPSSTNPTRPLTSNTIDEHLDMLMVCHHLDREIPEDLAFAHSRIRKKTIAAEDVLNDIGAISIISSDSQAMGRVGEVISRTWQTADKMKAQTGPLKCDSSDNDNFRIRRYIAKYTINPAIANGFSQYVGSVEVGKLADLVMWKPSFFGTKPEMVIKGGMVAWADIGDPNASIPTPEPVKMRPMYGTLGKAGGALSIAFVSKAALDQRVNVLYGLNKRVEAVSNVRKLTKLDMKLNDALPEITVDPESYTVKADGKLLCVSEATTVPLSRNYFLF

Row | Structure (SMILES) | IC50 [µM] | urease inhibitory activity in words
1 | Cn1c(O)c(C(c2ccc3ccccc3c2)c2c(O)n(C)c(=O)n(C)c2=O)c(=O)n(C)c1=O [Compound 4h, 5,5′-(Naphthalen-2-ylmethylene)bis(1,3-dimethylpyrimidine-2,4,6(1H,3H,5H)-trione) diethylaminium salt] | 40.3 ± 0.32 | 
2 | Cn1c(O)c(C(C2=C(O)CC(C)(C)CC2=O)c2ccc(C=O)cc2)c(=O)n(C)c1=O (centres unmarked) [Compound 4x, 4-((6-hydroxy-1,3-dimethyl-2,4-dioxo-1,2,3,4-tetrahydropyrimidin-5-yl)(2-hydroxy-4,4-dimethyl-6-oxocyclohex-1-en-1-yl)methyl)benzaldehyde diethylaminium salt] | 38.5 ± 0.28 | 
3 | CC1(C)CC(=O)C(C(c2ccccc2)c2c(O)[nH]c(=O)[nH]c2=O)=C(O)C1 (centres unmarked) [Compound 5n, 5-((2-Hydroxy-4,4-dimethyl-6-oxocyclohex-1-en-1-yl)(phenyl)methyl)-2,6-dioxo-1,2,3,6-tetrahydropyrimidin-4-olate diethylaminium salt] | 23.7 ± 0.57 | active
4 | Cn1c(O)c(C(c2ccc([N+](=O)[O-])cc2)c2c(O)n(C)c(=O)n(C)c2=O)c(=O)n(C)c1=O [Compound 4c, 5,5′-((4-Nitrophenyl)methylene)bis(1,3-dimethylpyrimidine-2,4,6(1H,3H,5H)-trione)diethylaminium salt] | 54.2 ± 0.47 | 
5 | CC1(C)CC(=O)C(C(C2=C(O)CC(C)(C)CC2=O)c2ccc(Cl)cc2)=C(O)C1 [Compound 5b, 2-((4-Chlorophenyl)(2-hydroxy-4,4-dimethyl-6-oxocyclohex-1-en-1-yl)methyl)-5,5-dimethyl-3-oxocyclohex-1-enolate diethylaminium salt] | 29.7 ± 0.67 | 
6 | COc1ccc(C(c2c(O)[nH]c(=O)[nH]c2=O)c2c(O)[nH]c(=O)[nH]c2=O)cc1 [Compound 4k, 5,5′-((4-Methoxyphenyl)methylene)bis(6-hydroxypyrimidine-2,4(1H,3H)-dione) diethylaminium salt] | 25.8 ± 0.23 | 
7 | CC1(C)CC(=O)C(C(c2ccc3ccccc3c2)c2c(O)[nH]c(=O)[nH]c2=O)=C(O)C1 (centres unmarked) [Compound 5r, 5-((2-Hydroxy-4,4-dimethyl-6-oxocyclohex-1-en-1-yl)(naphthalen-2-yl)methyl)-2,6-dioxo-1,2,3,6-tetrahydropyrimidin-4-olate diethylaminium salt] | 82.8 ± 0.72 | 
8 | Cn1c(O)c(C(C2=C(O)CC(C)(C)CC2=O)c2ccc(O)cc2)c(=O)n(C)c1=O (centres unmarked) [Compound 4v, 5-((2-Hydroxy-4,4-dimethyl-6-oxocyclohex-1-en-1-yl)(4-hydroxyphenyl)methyl)-1,3-dimethyl-2,6-dioxo-1,2,3,6-tetrahydropyrimidin-4-olate diethylaminium salt] | 52.2 ± 1.26 | 
9 | Cc1ccc(C(c2c(O)n(C)c(=O)n(C)c2=O)c2c(O)n(C)c(=O)n(C)c2=O)cc1 [Compound 4g, 5,5′-(p-Tolylmethylene)bis(1,3-dimethylpyrimidine-2,4,6(1H,3H,5H)-trione) diethylaminium salt] | 28.5 ± 0.41 | 
10 | CC1(C)CC(=O)C(C(C2=C(O)CC(C)(C)CC2=O)c2ccc([N+](=O)[O-])cc2)=C(O)C1 [Compound 5f, 2-((2-Hydroxy-4,4-dimethyl-6-oxocyclohex-1-en-1-yl)(4-nitrophenyl)methyl)-5,5-dimethyl-3-oxocyclohex-1-enolate diethylaminium salt] | 106 ± 1.49 | inactivity
11 | Cc1ccc(C(C2=C(O)CC(C)(C)CC2=O)c2c(O)n(C)c(=O)n(C)c2=O)cc1 (centres unmarked) [Compound 4n, 5-((2-Hydroxy-4,4-dimethyl-6-oxocyclohex-1-en-1-yl)(p-tolyl)methyl)-1,3-dimethyl-2,6-dioxo-1,2,3,6-tetrahydropyrimidin-4-olate diethylaminium salt] | 41.2 ± 0.58 | 
12 | COc1ccc(C(C2=C(O)CC(C)(C)CC2=O)C2=C(O)CC(C)(C)CC2=O)cc1 [Compound 5e, 2-((2-Hydroxy-4,4-dimethyl-6-oxocyclohex-1-en-1-yl)(4-methoxyphenyl)methyl)-5,5-dimethyl-3-oxocyclohex-1-enolate diethylaminium salt] | 39.8 ± 0.75 | 
13 | CC1(C)CC(=O)C(C(C2=C(O)CC(C)(C)CC2=O)c2ccc(O)cc2)=C(O)C1 [Compound 5k, 2-((2-Hydroxy-4,4-dimethyl-6-oxocyclohex-1-en-1-yl)(4-hydroxyphenyl)methyl)-5,5-dimethyl-3-oxocyclohex-1-enolate diethylaminium salt] | 43.8 ± 0.33 | good urease inhibitory activity
14 | Cn1c(O)c(C(C2=C(O)CC(C)(C)CC2=O)c2ccc(Cl)cc2Cl)c(=O)n(C)c1=O (centres unmarked) [Compound 4w, 5-((2,4-Dichlorophenyl)(2-hydroxy-4,4-dimethyl-6-oxocyclohex-1-en-1-yl)methyl)-1,3-dimethyl-2,6-dioxo-1,2,3,6-tetrahydropyrimidin-4-olate diethylaminium salt] | 59.4 ± 0.98 | 
15 | Cn1c(O)c(C(C2=C(O)CC(C)(C)CC2=O)c2cccc(Br)c2)c(=O)n(C)c1=O (centres unmarked) [Compound 4r, 5-((3-Bromophenyl)(2-hydroxy-4,4-dimethyl-6-oxocyclohex-1-en-1-yl)methyl)-1,3-dimethyl-2,6-dioxo-1,2,3,6-tetrahydropyrimidin-4-olate diethylaminium salt] | 27.5 ± 0.19 | 
16 | Cn1c(O)c(C(c2ccc(C=O)cc2)c2c(O)[nH]c(=O)[nH]c2=O)c(=O)n(C)c1=O (centres unmarked) [Compound 5l, 4-((6-Hydroxy-1,3-dimethyl-2,4-dioxo-1,2,3,4-tetrahydropyrimidin-5-yl)(6-hydroxy-2,4-dioxo-1,2,3,4-tetrahydropyrimidin-5-yl)methyl)benzaldehyde diethylaminium salt] | 17.2 ± 0.44 | most active
